Measured values: paper PMC7179653 (Antimicrobial Agents and Chemotherapy, 2020)
Like-named read-outs stand apart in the source and are kept apart here.

Assays:
[1] = Intensive ECG monitoring and exposure-response analysis of QTcF; assay type: in vivo, human
Protocol: Safety assessments included monitoring of AEs, laboratory safety tests (hematology, serum chemistry, and urinalysis), 12-lead ECG (discrete recordings and 24-h Holter recording), and vital signs (blood pressure, pulse rate, and body temperature). In the SAD study, safety assessments were performed predose at screening, at day 1, postdose periodically on days 1, 2, and 7 (follow-up), and at early withdrawal, if relevant. […] In the MAD study, safety assessments were done predose at screening, at day 2, postdose periodically on days 1, 2, 4, 7, and 8, on days 13 to 15 (follow-up), and at early withdrawal, if relevant. […] On all other days, a single predose sample was collected for pharmacokinetic evaluation prior to the morning infusion. Blood was collected into lithium-heparin tubes and stored at a nominal –80°C temperature until analysis.

[2] = MAD study: nacubactam pharmacokinetics, multiple doses and single dose alone or with meropenem; assay type: in vivo, human; details: for CL renal at 7 days / CL renal: plasma and urine; for AUC(0-t): read-out: AUC0–8h; for Tmax at 7 days: day 7, n = 6, median (range)
Protocol: The MAD study consisted of three parts (Fig. 1). […] Participants were enrolled in two sequential cohorts (cohort 1, followed by cohort 2). […] Participants were also enrolled in two sequential cohorts (cohort 3, followed by cohort 4). […] A washout period of approximately 24 h between treatments was provided. Study treatments were administered as 30-min (SAD study) or 90-min (MAD study) i.v. infusions, the latter to investigate the pharmacokinetics using a longer infusion time, which is commonly used to increase the time above the MIC of β-lactams ([15]). The choice of a 90-min infusion time for the MAD study was dictated by the stability and toxicology data available at the time the study was being designed. […] Safety assessments included monitoring of AEs, laboratory safety tests (hematology, serum chemistry, and urinalysis), 12-lead ECG (discrete recordings and 24-h Holter recording), and vital signs (blood pressure, pulse rate, and body temperature). In the SAD study, safety assessments were performed predose at screening, at day 1, postdose periodically on days 1, 2, and 7 (follow-up), and at early withdrawal, if relevant. […] In the MAD study, safety assessments were done predose at screening, at day 2, postdose periodically on days 1, 2, 4, 7, and 8, on days 13 to 15 (follow-up), and at early withdrawal, if relevant. […] On all other days, a single predose sample was collected for pharmacokinetic evaluation prior to the morning infusion. Blood was collected into lithium-heparin tubes and stored at a nominal –80°C temperature until analysis.

[3] = MAD part 3, single dose (day 1 or 2) nacubactam 2,000 mg alone, geometric mean (%CV)
[4] = MAD part 3, single dose (day 3) nacubactam 2,000 mg plus meropenem 2,000 mg, geometric mean (%CV)
[5] = human, plasma, intravenous, 1000 mg, MAD part 1, 1,000 mg q8h for 7 days, day 7, n = 6, geometric mean (%CV)
[6] = human, plasma, intravenous, 2000 mg
[7] = human, plasma, intravenous, 2000 mg, MAD part 1, 2,000 mg q8h for 7 days, day 7, n = 6, geometric mean (%CV)
[8] = human, plasma, intravenous, 2000 mg, MAD part 3, single dose (day 1 or 2) nacubactam 2,000 mg alone, geometric mean (%CV)
[9] = human, plasma, intravenous, 4000 mg, MAD part 2, 4,000 mg q8h for 7 days, day 9, n = 6, geometric mean (%CV)
[10] = human, plasma, intravenous, MAD part 3, single dose (day 3) nacubactam 2,000 mg plus meropenem 2,000 mg, geometric mean (%CV)

SMILES: NCCONC(=O)[C@@H]1CC[C@@H]2CN1C(=O)N2OS(=O)(=O)O [Nacubactam]
- treatment estimate, linear model of change in QTcF vs plasma concentration ([1]; 90% CI, 3.8879 to 1.9931, P = 0.59): 0.9474
- slope estimate, linear model of change in QTcF vs plasma concentration ([1]; P = 0.73): 0.00422
- upper limit of the two-sided 90% CI of predicted change from baseline in QTcF ([1]; at the Cmax of 325 μg/ml, each of the three models): < 10 ms
- predicted mean change from baseline in QTcF ([1]; at the Cmax of 325 μg/ml, each of the three models (linear, quadratic, log-linear)): < 3 ms
- effect on QTc interval duration, other ECG intervals, or ECG morphology ([1]; nacubactam alone, intensive ECG monitoring): did not reveal any significant effects
- Fe%0–8h (cumulative percentage of dose excreted in urine from time zero to 8 h) ([2]; MAD part 1, 1,000 mg q8h for 7 days, day 7, n = 6, geometric mean (%CV)): 81.9 (1) %
- Fe%0–8h (cumulative percentage of dose excreted in urine from time zero to 8 h) ([2]; MAD part 1, 2,000 mg q8h for 7 days, day 7, n = 6, geometric mean (%CV)): 87.0 (11) %
- Fe%0–8h (cumulative percentage of dose excreted in urine from time zero to 8 h) ([2]; MAD part 2, 4,000 mg q8h for 7 days, day 9, n = 6, geometric mean (%CV)): 83.9 (9) %
- Fe%0–8h (cumulative percentage of dose excreted in urine from time zero to 8 h) [2, 3]: 85.5 (13) %
- Fe%0–24h (cumulative percentage of dose excreted in urine from time zero to 24 h) [2, 3]: 91.1 (10) %
- Fe%0–8h (cumulative percentage of dose excreted in urine from time zero to 8 h) [2, 4]: 82.7 (12) %
- Fe%0–24h (cumulative percentage of dose excreted in urine from time zero to 24 h) [2, 4]: 88.4 (11) %
- accumulation in plasma ([2]; following 7 days of q8h dosing): minimal accumulation
- route of elimination ([2]; following single and multiple doses): excreted largely unchanged into urine
- contribution of nonrenal elimination processes on clearance ([2]; from difference between CL and CLR): < 20%
- CL renal at 7 days ([2]; human, intravenous, 1000 mg, MAD part 1, 1,000 mg q8h for 7 days, day 7, n = 6, geometric mean (%CV)): 112 mL/min
- CL renal at 7 days ([2]; human, intravenous, 2000 mg, MAD part 1, 2,000 mg q8h for 7 days, day 7, n = 6, geometric mean (%CV)): 104 mL/min
- CL renal ([2]; human, intravenous, 2000 mg, MAD part 3, single dose (day 1 or 2) nacubactam 2,000 mg alone, geometric mean (%CV), read-out: CLR (converted)): 142 mL/min
- CL renal at 7 days ([2]; human, intravenous, 4000 mg, MAD part 2, 4,000 mg q8h for 7 days, day 9, n = 6, geometric mean (%CV)): 113 mL/min
- CL renal ([2]; human, intravenous, MAD part 3, single dose (day 3) nacubactam 2,000 mg plus meropenem 2,000 mg, geometric mean (%CV), read-out: CLR (converted)): 135 mL/min
- CL renal ([2]; human, intravenous, single (1,000 to 8,000 mg) and multiple (1,000 to 4,000 mg) doses, read-out: estimated CLR, range): 91.7 to 142 mL/min
- Cmax at 7 days [2, 5]: 36.6 µg/mL
- half-life [2, 5]: 2.66 h
- AUC(0-t) [2, 5]: 118 µg·h/mL
- clearance ([2]; human, plasma, intravenous, 1000 mg, MAD part 1, 1,000 mg q8h for 7 days, day 7, n = 6, geometric mean (%CV), read-out: CL (converted)): 142 mL/min
- Vd at 7 days ([2]; human, plasma, intravenous, 1000 mg, MAD part 1, 1,000 mg q8h for 7 days, day 7, n = 6, geometric mean (%CV), read-out: Vss): 21.9 L
- Tmax at 7 days ([2]; human, plasma, intravenous, 1000 mg, MAD part 1, 1,000 mg q8h for 7 days): 1 h
- AUC(0-inf) [2, 6]: 225 µg·h/mL
- Cmax [2, 6]: 66 µg/mL
- Tmax [2, 6]: 1 h
- Cmax at 7 days [2, 7]: 89.6 µg/mL
- half-life [2, 7]: 2.66 h
- AUC(0-t) [2, 7]: 279 µg·h/mL
- clearance ([2]; human, plasma, intravenous, 2000 mg, MAD part 1, 2,000 mg q8h for 7 days, day 7, n = 6, geometric mean (%CV), read-out: CL (converted)): 119 mL/min
- Vd at 7 days ([2]; human, plasma, intravenous, 2000 mg, MAD part 1, 2,000 mg q8h for 7 days, day 7, n = 6, geometric mean (%CV), read-out: Vss): 16.5 L
- half-life [2, 8]: 2.63 h
- AUC(0-t) [2, 8]: 201 µg·h/mL
- clearance ([2]; human, plasma, intravenous, 2000 mg, MAD part 3, single dose (day 1 or 2) nacubactam 2,000 mg alone, geometric mean (%CV), read-out: CL (converted)): 148 mL/min
- Tmax at 7 days ([2]; human, plasma, intravenous, 2000 mg, MAD part 1, 2,000 mg q8h for 7 days): 1.33 h
- Vd ([2]; human, plasma, intravenous, 2000 mg, read-out: Vss): 26.2 L
- Cmax at 7 days [2, 9]: 179 µg/mL
- half-life [2, 9]: 2.69 h
- AUC(0-t) [2, 9]: 496 µg·h/mL
- clearance ([2]; human, plasma, intravenous, 4000 mg, MAD part 2, 4,000 mg q8h for 7 days, day 9, n = 6, geometric mean (%CV), read-out: CL (converted)): 134 mL/min
- Vd at 7 days ([2]; human, plasma, intravenous, 4000 mg, MAD part 2, 4,000 mg q8h for 7 days, day 9, n = 6, geometric mean (%CV), read-out: Vss): 20.1 L
- half-life [2, 10]: 2.38 h
- AUC(0-t) [2, 10]: 204 µg·h/mL
- clearance ([2]; human, plasma, intravenous, MAD part 3, single dose (day 3) nacubactam 2,000 mg plus meropenem 2,000 mg, geometric mean (%CV), read-out: CL (converted)): 149 mL/min
- clearance ([2]; human, plasma, intravenous, single (1,000 to 8,000 mg) and multiple (1,000 to 4,000 mg) doses, read-out: estimated CL, range on average): 120 to 148 mL/min
